Measurements from the NIST ThermoML archive (doi:10.1016/j.jct.2016.12.021).
Numbers after ± are expanded uncertainties.

Conditions: Liquid, Closed cell (Static) method

Row | SMILES | vapor or sublimation pressure (293.18 K) | vapor or sublimation pressure (298.15 K) | vapor or sublimation pressure (313.15 K) | vapor or sublimation pressure (323.15 K) | vapor or sublimation pressure (353.15 K)
1 | CCC [propane] | 836.8 ± 2.4 kPa | 950.8 ± 2.8 kPa | 1380.1 ± 10 kPa | 1713 ± 4.5 kPa | 3135.4 ± 6.2 kPa
2 | FC(F)F [trifluoromethane] | 4171.7 ± 11 kPa | 4709.3 ± 12 kPa |  |  | 
